Results published in US5866681A, “Thrombin receptor antagonists” (priority 1995, dated 1999).
*1 amine or outer side, *2 acyl side, *3 side chain or, on linkers, in order; H or OH if unused. Where a SMILES comes first, the peptide text is derived from it. Where no end group is shown, it is not given here. [ ]: non-standard residue; d: D form. The star is where a group is joined. Isoquinolin(3-yl)carbonyl = O=C(c1cc2ccccc2cn1)*; X16 = CCCCCN([C@@H](Cc1ccccc1)C(=O)[*:2])[*:1]; 2Naphthylsulfonyl = O=S(=O)(c1ccc2ccccc2c1)*; Quinoxaline2carbonyl = O=C(c1cnc2ccccc2n1)*; Quinoline3carbonyl = O=C(c1cnc2ccccc2c1)*; X6 = CCCCCN(CCCCC)[C@@H](Cc1ccccc1)C(=O)*; Butanoyl(2-OPh) = CCC(Oc1ccccc1)C(=O)*; X5 = CCCCCN(C)[C@@H](Cc1ccccc1)C(=O)*; X4 = CCCCCN1Cc2ccccc2C[C@H]1C(=O)*; NMeR = CN[C@@H](CCCNC(=N)N)C(=O)O; Quinaldoyl = O=C(c1ccc2ccccc2n1)*; hArg = N=C(N)NCCCC[C@H](N)C(=O)O; Cha = N[C@@H](CC1CCCCC1)C(=O)O; dCha = N[C@H](CC1CCCCC1)C(=O)O; X2 = O=C(Cc1c[nH]c2ccccc12)*; X8 = O=C(C1CCc2ccccc2C1)*; Orn = NCCC[C@H](N)C(=O)O

molecular target: T1, thrombin receptor (Homo sapiens, UniProt P25116); experiment: Platelet aggregation assay for thrombin receptor antagonist activity (washed human platelets stimulated with α-thrombin); assay type: cell-based; details: not given
T1 construct: washed human platelets are prepared from blood drawn from healthy volunteers; endogenous in cells; host or cells: washed human platelets from healthy volunteers
T1 sequence (P25116 22-425): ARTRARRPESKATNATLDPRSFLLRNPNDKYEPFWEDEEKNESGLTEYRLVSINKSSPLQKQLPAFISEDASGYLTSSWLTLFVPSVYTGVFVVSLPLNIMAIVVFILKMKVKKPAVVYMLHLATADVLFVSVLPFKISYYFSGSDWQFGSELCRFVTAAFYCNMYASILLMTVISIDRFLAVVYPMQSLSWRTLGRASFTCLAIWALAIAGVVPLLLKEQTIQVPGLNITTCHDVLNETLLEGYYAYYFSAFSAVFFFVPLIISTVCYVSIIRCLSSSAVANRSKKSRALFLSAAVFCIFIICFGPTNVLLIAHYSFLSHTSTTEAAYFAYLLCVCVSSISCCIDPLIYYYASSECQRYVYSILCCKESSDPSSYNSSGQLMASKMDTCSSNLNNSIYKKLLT
Method: The compounds of the present invention may be tested for thrombin receptor antagonist activity by using a platelet aggregation assay. In this assay, washed human platelets are prepared from blood drawn from healthy volunteers who have not ingested any medications for two weeks prior to donation. Blood is drawn into 12.5% (vol/vol) ACD (85 mM sodium citrate, 111 mM dextrose, 71 mM citric acid) containing 0.1% (vol/vol) PGI2 (0.05 mg/mL PGI2, 100 mM Tris, pH 12). Platelet-rich plasma was obtained by centrifugation at 160×g for 20 minutes. The platelets were pelleted by centrifugation at 760×g for 10 minutes and resuspended in CGS (13 mM trisodium citrate, 120 mM sodium chloride, 30 mM dextrose, pH 7.0) containing 0.1% (vol/vol) PGI2, repelleted and resuspended in Tyrodes buffer (10 mM Hepes, 12 mM sodium bicarbonate, 138 mM sodium chloride, 5.5 mM glucose, 2.9 mM potassium chloride, 1.0 mM calcium chloride, pH 7.4) and stored at 37° C. Approximately 0.4-10 nM α-thrombin is used to stimulate platelet aggregation in control reactions which are monitored by aggregometry using an aggregometer. Candidate antagonists are added to the platelet mixture followed by the addition of thrombin in order to assess their ability to prevent thrombin-mediated aggregation.
Platelet aggregation can also be measured with washed platelets in 96-well microtiter plates as described in Fratantoni, J. C. et al., Am. J. Clin. Pathol. 94:613-617 (1990). The ability of the antagonists to block the thrombin receptor was assessed in this assay using various concentrations of antagonists. The concentration at which 50% inhibition of platelet aggregation is achieved is defined as IC50.

Molecule | IC50 [µM]
N=C(N)NCCC[C@H](NC(=O)[C@H](CC1CCCCC1)NC(=O)[C@H](CC1CCCCC1)NC(=O)c1cc2ccccc2cn1)C(=O)N[C@@H](CCCCN)C(N)=O [Compound 32] ({Isoquinolin(3-yl)carbonyl}-[Cha][Cha]RK-NH2) | 15
CCCCCN(C)[C@@H](Cc1ccccc1)C(=O)N[C@@H](CC1CCCCC1)C(=O)N[C@H](CC1CCCCC1)C(=O)N[C@@H](CCCNC(=N)N)C(=O)N[C@@H](CCCCN)C(N)=O [Compound 43] (X5-[Cha][dCha]RK-NH2) | 15

same assay, conditions: washed human platelets, thrombin-mediated aggregation; read-out: IC50 (concentration at which 50% inhibition of platelet aggregation is achieved)

Molecule | IC50 [µM]
N=C(N)NCCC[C@H](NC(=O)[C@H](CC1CCCCC1)NC(=O)[C@H](CC1CCCCC1)NC(=O)c1ccc2ccccc2n1)C(=O)N[C@@H](CCCCN)C(N)=O [Compound 28] (Quinaldoyl-[Cha][Cha]RK-NH2) | 30
N=C(N)NCCC[C@H](NC(=O)[C@H](CC1CCCCC1)NC(=O)[C@H](CC1CCCCC1)NC(=O)c1cnc2ccccc2c1)C(=O)N[C@@H](CCCCN)C(N)=O [Compound 29] (Quinoline3carbonyl-[Cha][Cha]RK-NH2) | > 200
N=C(N)NCCC[C@H](NC(=O)[C@H](CC1CCCCC1)NC(=O)[C@H](CC1CCCCC1)NC(=O)Cc1c[nH]c2ccccc12)C(=O)N[C@@H](CCCCN)C(N)=O [Compound 30] (X2-[Cha][Cha]RK-NH2) | 20
N=C(N)NCCC[C@H](NC(=O)[C@H](CC1CCCCC1)NC(=O)[C@H](CC1CCCCC1)NC(=O)C1CCc2ccccc2C1)C(=O)N[C@@H](CCCCN)C(N)=O (stereo partly shown) [Compound 31] (X8-[Cha][Cha]RK-NH2) | > 200
C/C(=C\c1ccccc1)CN[C@@H](CC1CCCCC1)C(=O)N[C@@H](CC1CCCCC1)C(=O)N[C@@H](CCCNC(=N)N)C(=O)N[C@@H](CCCCN)C(N)=O [Compound 34] | 15
CC/C(=C\c1ccccc1)CN[C@@H](CC1CCCCC1)C(=O)N[C@@H](CC1CCCCC1)C(=O)N[C@@H](CCCNC(=N)N)C(=O)N[C@@H](CCCCN)C(N)=O [Compound 35] | 20
N=C(N)NCCC[C@H](NC(=O)[C@H](CC1CCCCC1)NC(=O)[C@H](CC1CCCCC1)NC(=O)c1cnc2ccccc2n1)C(=O)N[C@@H](CCCCN)C(N)=O [Compound 37] (Quinoxaline2carbonyl-[Cha][Cha]RK-NH2) | > 100
N=C(N)NCCC[C@H](NC(=O)[C@H](CC1CCCCC1)NC(=O)[C@H](CC1CCCCC1)NS(=O)(=O)c1ccc2ccccc2c1)C(=O)N[C@@H](CCCCN)C(N)=O [Compound 38] (2Naphthylsulfonyl-[Cha][Cha]RK-NH2) | 10
CCC(Oc1ccccc1)C(=O)N[C@@H](Cc1ccccc1)C(=O)N[C@@H](CC1CCCCC1)C(=O)N[C@@H](CCCNC(=N)N)C(=O)N[C@@H](CCCCN)C(N)=O (stereo partly shown) [Compound 46] ({Butanoyl(2-OPh)}-F[Cha]RK-NH2) | 15
CCC(Oc1ccccc1)C(=O)N[C@@H](CC1CCCCC1)C(=O)N[C@@H](CC1CCCCC1)C(=O)N[C@@H](CCCNC(=N)N)C(=O)N[C@@H](CCCN)C(N)=O (stereo partly shown) [Compound 48] ({Butanoyl(2-OPh)}-[Cha][Cha]R[Orn]-NH2) | 10
CCC(Oc1ccccc1)C(=O)N[C@@H](CC1CCCCC1)C(=O)N[C@@H](CC1CCCCC1)C(=O)N[C@@H](CCCCN)C(=O)N[C@@H](CCCCN)C(N)=O (stereo partly shown) [Compound 49] ({Butanoyl(2-OPh)}-[Cha][Cha]KK-NH2) | 75
CCC(Oc1ccccc1)C(=O)N[C@@H](CC1CCCCC1)C(=O)N[C@@H](CC1CCCCC1)C(=O)N[C@@H](CCCN)C(=O)N[C@@H](CCCCN)C(N)=O (stereo partly shown) [Compound 50] ({Butanoyl(2-OPh)}-[Cha][Cha][Orn]K-NH2) | 100
CCC(Oc1ccccc1)C(=O)N[C@@H](CC1CCCCC1)C(=O)N[C@@H](CC1CCCCC1)C(=O)N[C@@H](CCCNC(=N)N)C(=O)N[C@H](CCCCN)C(N)=O (stereo partly shown) [Compound 52] ({Butanoyl(2-OPh)}-[Cha][Cha]R[dK]-NH2) | 15
CCC(Oc1ccccc1)C(=O)N[C@@H](CC1CCCCC1)C(=O)N[C@@H](CC1CCCCC1)C(=O)NCc1ccncc1 (stereo partly shown) [Compound 58] | > 100
CCC(Oc1ccccc1)C(=O)N[C@@H](CC1CCCCC1)C(=O)N[C@@H](CC1CCCCC1)C(=O)NCCCN1CCN(CCCN)CC1 (stereo partly shown) [Compound 59] | 90
CCC(Oc1ccccc1)C(=O)N[C@@H](CC1CCCCC1)C(=O)N[C@@H](CC1CCCCC1)C(=O)NCCCN(C)C (stereo partly shown) [Compound 60] | 25

Results, then the molecule that gave them:

IC50 [µM] | Molecule
8 | CCCCCN1Cc2ccccc2C[C@H]1C(=O)N[C@@H](CC1CCCCC1)C(=O)N[C@@H](CC1CCCCC1)C(=O)N(C)[C@@H](CCCNC(=N)N)C(=O)N[C@@H](CCCNC(=N)N)C(N)=O [Compound 39] (X4-[Cha][Cha][NMeR]R-NH2)
7.5 | CC(COc1ccccc1)N[C@@H](CC1CCCCC1)C(=O)N[C@@H](CC1CCCCC1)C(=O)N[C@@H](CCCNC(=N)N)C(=O)N[C@@H](CCCCN)C(N)=O (stereo partly shown) [Compound 36]
5 | N=C(N)NCCC[C@H](NC(=O)[C@H](CC1CCCCC1)NC(=O)[C@H](CC1CCCCC1)NC/C=C/c1ccccc1)C(=O)N[C@@H](CCCCN)C(N)=O [Compound 33]
5 | CCCCCN[C@@H](Cc1ccccc1)C(=O)N[C@@H](CC1CCCCC1)C(=O)N[C@H](CC(C)C)C(=O)N[C@@H](CCCNC(=N)N)C(=O)N[C@@H](CCCCN)C(N)=O [Compound 44] (H-[X16][Cha][dL]RK-NH2)
5 | CCCCCN[C@@H](Cc1ccccc1)C(=O)N[C@H](CC(C)C)C(=O)N[C@@H](CC1CCCCC1)C(=O)N[C@@H](CCCNC(=N)N)C(=O)N[C@@H](CCCCN)C(N)=O [Compound 45] (H-[X16][dL][Cha]RK-NH2)
2.5 | CCC(Oc1ccccc1)C(=O)N[C@@H](CC1CCCCC1)C(=O)N[C@@H](CC1CCCCC1)C(=O)N[C@@H](CCCCNC(=N)N)C(=O)N[C@@H](CCCCN)C(N)=O (stereo partly shown) [Compound 47] ({Butanoyl(2-OPh)}-[Cha][Cha][hArg]K-NH2)
2.5 | CCC(Oc1ccccc1)C(=O)N[C@@H](CC1CCCCC1)C(=O)N[C@@H](CC1CCCCC1)C(=O)N[C@@H](CCCNC(=N)N)C(=O)N[C@@H](CCCNC(=N)N)C(N)=O (stereo partly shown) [Compound 51] ({Butanoyl(2-OPh)}-[Cha][Cha]RR-NH2)
2 | CCCCCN(CCCCC)[C@@H](Cc1ccccc1)C(=O)N[C@@H](CC1CCCCC1)C(=O)N[C@H](CC1CCCCC1)C(=O)N[C@@H](CCCNC(=N)N)C(=O)N[C@@H](CCCCN)C(N)=O [Compound 42] (X6-[Cha][dCha]RK-NH2)
2 | CCC(Oc1ccccc1)C(=O)N[C@@H](CC1CCCCC1)C(=O)N[C@@H](CC1CCCCC1)C(=O)N(C)[C@@H](CCCNC(=N)N)C(=O)N[C@@H](CCCCN)C(N)=O (stereo partly shown) [Compound 53] ({Butanoyl(2-OPh)}-[Cha][Cha][NMeR]K-NH2)
2 | CCC(Oc1ccccc1)C(=O)N[C@@H](Cc1ccccc1)C(=O)N[C@@H](CC1CCCCC1)C(=O)N[C@@H](CCCCNC(=N)N)C(=O)N[C@@H](CCCNC(=N)N)C(N)=O (stereo partly shown) [Compound 57] ({Butanoyl(2-OPh)}-F[Cha][hArg]R-NH2)
1 | CCC(Oc1ccccc1)C(=O)N[C@@H](CC1CCCCC1)C(=O)N[C@@H](CC1CCCCC1)C(=O)N[C@@H](CCCCNC(=N)N)C(=O)N[C@@H](CCCNC(=N)N)C(N)=O (stereo partly shown) [Compound 55] ({Butanoyl(2-OPh)}-[Cha][Cha][hArg]R-NH2)
0.5 | CCC(Oc1ccccc1)C(=O)N[C@@H](CC1CCCCC1)C(=O)N[C@@H](CC1CCCCC1)C(=O)N(C)[C@@H](CCCNC(=N)N)C(=O)N[C@@H](CCCNC(=N)N)C(N)=O (stereo partly shown) [Compound 54] ({Butanoyl(2-OPh)}-[Cha][Cha][NMeR]R-NH2)

molecular target: T2, platelet thrombin receptors (Homo sapiens, UniProt P25116); experiment: not given; details: platelet thrombin receptors activated with either thrombin or agonist peptides; cited from earlier work
T2 construct: host or cells: platelets
T2 sequence (P25116 22-425): T1 sequence (P25116 22-425)

Molecule | thrombin receptor antagonist activity
Phe-Leu-Leu-Arg-Asn-OH (FLLRN-OH) [pentapeptide based on a portion of the agonist peptide minimum structure] | weak antagonist
